Tests used:
P. aeruginosa (PA01) [1] = assay: Pseudomonas PAO1 biofilm inhibition on lactam-based textiles by SEM; format: cell-based, Pseudomonas aeruginosa; details: for Bacteria (pixels): SEM image; for % bacteria coverage: bacteria pixels/total pixels of SEM image
Experimental: P. aeruginosa (PA01) was cultured overnight at 37° C. on TSA plates. Prior to use in tests, colonies were added to 20 mL of brain-heart infusion broth (BHI) containing 5 mL of glass beads and homogenised for 30 seconds. The optical density of the organism was measured and adjusted to give 1×10^8 cfu/mL. Inoculum (0.3 ml) was placed directly on modified and unmodified textiles in 24-well plates and incubated overnight in appropriate broth. Textiles were subsequently removed, washed in PBS and fixed for microscopy.
Fixative was prepared as described (Erlandsen, Kristich, Dunny, Wells, J. Histochem Cytochem, 2004), using 2% para-formaldehyde, 2% gluteraldehyde and 0.15M Sodium Cacodylate and 0.15% Alcian Blue, pH 7.4. The fixative was applied (enough to cover the biofilms) to the wells containing the biofilms on suitable substrates for 2 hours, this varied between 2 and 22 hours.
Following fixation, the fixative solution was removed and 0.15M Sodium Cacodylate buffer was added to the samples. The samples were then stored in the fridge until processing. Samples were washed 3×5 mins with […] fresh buffer to remove any remaining glutaraldehyde. Subsequently, a solution of 1% Osmium tetroxide (OsO4) was prepared 1:1 with 0.15M Sodium Cacodylate buffer, and added to the samples before incubating for 1 hour at room temperature. Samples were rinsed with distilled water 3×10 mins. 0.5% aqueous Uranyl acetate was then added to the samples before incubation in the dark for 30 mins at room temperature.
Samples were then dehydrated in an ascending ethanol series:
Samples were transferred from the original 24-well plate into a petri dish of hexamethyldisilazane (HMDS) for 5 mins, then to a second dish for 5 mins before being placed in a new 24-well plate lined with filter paper. The plate was then placed in a desiccator overnight to allow evaporation and drying or samples.
After sputter coating with gold-palladium in an argon filled chamber, samples were viewed under a JEOL JSM-6400 scanning electron microscope and images were assembled using the Photoshop software.
The SEM images were measured and the amount of pixels of textile and pixels of bacteria were determined. The % of bacteria coverage is the bacteria pixels/total pixels.

P. aeruginosa GFP = assay: Pseudomonas Aeruginosa-GFP biofilm growth curve inhibition on lactam-based textiles by fluorescence; format: cell-based; details: lactam in acrylic emulsion binder, printed, or encapsulated and padded on textile; compared to textile without the lactam
Experimental: A fluorescent strain of P. aeruginosa was used to allow growth inhibition to be measured by fluorescence. P. aeruginosa GFP was cultured for 2 days at 30° C. on MEA plates. Prior to use in tests, colonies were added to 20 mL of brain-heart infusion broth (BHI) containing 5 mL of glass beads and homogenised for 30 seconds. The optical density was measured and adjusted to give 1×10^8 cfu/m. Subsequently, 0.5 mL of the strain in BHI broth was added to the wells of a 24 well plate containing the substrates. This was then placed in the plate reader and read every hour at […]. The experiment tested a control (textile without lactam coating, the sample (textile coated with lactam) and a positive control (chlorhexidine).

P. aeruginosa (PA01) [2] = assay: Biofilm growth inhibition on lactam-based acrylic emulsion textiles by viability (AlamarBlue), Pseudomonas; format: cell-based, Pseudomonas aeruginosa; details: for Mean biofilm metabolism (AlamarBlue): acrylic emulsion coated with lactam, overnight, lower than 100 = reduction in biofilm growth
Experimental: (§1) P. aeruginosa (PA01), S. aureus (Newman's strain) were cultured overnight at 37° C. on TSA 5 plates. C. albicans […] was cultured for 2 days at 30° C. on MEA plates. Prior to use in tests, colonies of each organism were added to 20 mL of brain-heart infusion broth (BHI) containing 5 mL of glass beads and homogenised for 30 seconds. The optical density of each organism was measured and adjusted to give 1×10^7 cfu/mL. Inoculum (0.3 ml) was placed directly on acrylic emulsion coated cotton and PET textiles (with and without lactam) that have been previously positioned inside the wells of 6-well plates and incubated overnight in appropriate broth. Textiles were subsequently removed, washed in PBS and metabolism assessed by AlamarBlue on a plate reader. Data were presented as percentage of no-lactam control. A number lower than 100 indicates a reduction in microorganism biofilm growth for the lactam coated textile compared to uncoated textile.

C. albicans 3153A = assay: Biofilm growth inhibition on lactam-based acrylic emulsion textiles by viability (AlamarBlue), Candida; format: cell-based, Candida albicans; details: acrylic emulsion coated with lactam, overnight, lower than 100 = reduction in biofilm growth
Experimental: as §1

[3] = system: S. aureus (Newman's strain); assay: Biofilm growth inhibition on lactam-based acrylic emulsion textiles by viability (AlamarBlue), Staphylococcus; format: cell-based, Staphylococcus aureus; details: acrylic emulsion coated with lactam, overnight, lower than 100 = reduction in biofilm growth
Experimental: as §1

SMILES	Bacteria (pixels) (P. aeruginosa (PA01) [1]; fluorinated polypropylene non-woven coated with cationic lactam, control textile 30,880)	% bacteria coverage (P. aeruginosa (PA01) [1]; fluorinated polypropylene non-woven coated with cationic lactam, control textile 78.0%) [%]	% bacteria coverage (P. aeruginosa (PA01) [1]; fluorinated polypropylene non-woven coated with cationic lactam, control textile 78.0%, listed as Cationic Lactam) [%]	Bacteria (pixels) (P. aeruginosa (PA01) [1]; polypropylene non-woven coated with lactam in acrylic emulsion, control textile 10,851)	% bacteria coverage (P. aeruginosa (PA01) [1]; polypropylene non-woven coated with lactam in acrylic emulsion, control textile 32.1%) [%]	% bacteria coverage (P. aeruginosa (PA01) [1]; polypropylene non-woven coated with lactam in acrylic emulsion, control textile 32.1%, listed as lactam) [%]	Bacteria (pixels) (P. aeruginosa (PA01) [1]; polypropylene non-woven printed with lactam in solvents, control textile 26,917)	% bacteria coverage (P. aeruginosa (PA01) [1]; polypropylene non-woven printed with lactam in solvents, control textile 62.6%) [%]	% bacteria coverage (P. aeruginosa (PA01) [1]; polypropylene non-woven printed with lactam in solvents, control textile 62.6%, listed as lactam) [%]	Bacteria (pixels) (P. aeruginosa (PA01) [1]; viscose non-woven padded with lactam in polyurea encaps, control textile 16,291)	% bacteria coverage (P. aeruginosa (PA01) [1]; viscose non-woven padded with lactam in polyurea encaps, control textile 47.8%) [%]	% bacteria coverage (P. aeruginosa (PA01) [1]; viscose non-woven padded with lactam in polyurea encaps, control textile 47.8%, listed as lactam) [%]	Pseudomonas Aeruginosa-GFP biofilm growth on the textile (fluorescence growth curve) (P. aeruginosa GFP)	Mean biofilm metabolism (AlamarBlue) (P. aeruginosa (PA01) [2]; Cotton)	Mean biofilm metabolism (AlamarBlue) (P. aeruginosa (PA01) [2]; Polyethylene)	biofilm growth compared to textile with no coating (in words) (P. aeruginosa (PA01) [2]; polyethylene and cotton coated with lactam)	Mean biofilm metabolism (AlamarBlue) (C. albicans 3153A; Cotton)	Mean biofilm metabolism (AlamarBlue) (C. albicans 3153A; Polyethylene)	Mean biofilm metabolism (AlamarBlue) ([3]; Cotton)	Mean biofilm metabolism (AlamarBlue) ([3]; Polyethylene)
C=C1C(c2ccc(Cl)cc2)=CC(=O)N1CCC[N+](C)(C)C [lactam (488) (cationic)]	15,864 pixels	36.6	36.6	–	–	–	–	–	–	–	–	–	–	–	–	–	–	–	–	–
C=C1NC(=O)C=C1c1ccc(Cl)cc1 [lactam (488), 4-(4-chlorophenyl)-5-methylene-pyrrol-2-one]	–	–	–	2,660 pixels	10.1	10.1	23,381 pixels	48.0	48.0	1,806 pixels	8.7	8.7	reduced Pseudomonas Aeruginosa-GFP biofilm growth	54.89 percentage of no-lactam control	80.95 percentage of no-lactam control	reduction in Pseudomonas Aeruginosa biofilm growth	84.69 percentage of no-lactam control	67.83 percentage of no-lactam control	33.35 percentage of no-lactam control	47.88 percentage of no-lactam control

Source: patent US12460346B2, “Lactam coated textile” (Conopco, Inc., priority 2018, dated 2025)
